Earlier results on 1 molecule are cited in patent US6783752B2, “Contrast agents” (Amersham Health AS, priority 1996, dated 2004).

SMILES strings stand for the structures.

For series [1] the following is noted: in vivo.
The subject of series [2] is coronary blood flow. The conditions noted are these: in vivo.

For the molecule `Nc1ncnc2c1ncn2[C@@H]1O[C@H](CO)[C@@H](O)[C@H]1O` [adenosine], in series [1], the blood pool half-life was 2 s. Also, the “increase in coronary blood flow in healthy myocardial tissue” value in series [2] is “in excess of fourfold increases in coronary blood flow”.
